Results published in patent US10266499B2, “Imidazole derivatives as prodrugs of diclofenac” (priority 2014, dated 2019).
≈ marks a conversion by molar mass, not a printed value. Read-outs that look alike come from different tables or passages of the source.

Legend:
[1] = pKa-value using a GLpKa meter; assay type: physicochemical; details: 25° C.
[2] = Solubility in 67 mM phosphate buffer pH 7.4 and in hydrochloride solutions at 37° C.; assay type: physicochemical; details: for solubility thermodynamic: 37 °C, thermodynamic from solid, read-out: S
Experimental: The determination of the solubility of a prodrug at different pH values of interest according to the present invention is carried by adding excess solid prodrug to a container containing a buffer solution with well-defined pH. The mixture is rotated at constant temperature until an equilibrium between solid prodrug and prodrug in solution has established (that is until the prodrug concentration in the supernatant remains constant). At each measurement the pH of the supernatant is controlled and, if needed, adjusted to the desired pH. In a similar manner the solubility of a prodrug in a tissue fluid including the synovial fluid can be determined. The latter procedure comprises a simple way of testing if the solubility at the selected lower pH is indeed at least 100 times higher than the corresponding solubility in the physiological fluid it is injected into. […] For instance, a decrease in pH from pH 7.4 to 2.0 will result in a 1000-fold increase in the solubility of a base with a pKa value of 5, whereas the solubility will increase by a factor of about 9618 for a base with a pKa value of 6. These predicted alterations in pH dependent solubilities can be calculated from the expression: St=S0*(1+10^pKa-pH) where St is the total solubility at a given pH and S0 is the solubility of the neutral form of the prodrug.
A surplus of prodrug was added to either PBS pH 7.4 or H2O. 0.1 M HCl was added to the H2O to decrease pH to around 3-4. The mixtures were rotated at 37° C. and a sample was withdrawn after approximately 24 and 48 hours or later. The withdrawn sample was filtered through a 0.45 μm Millex®-HV (Millipore, Japan) low protein binding filter (the first 0.5 mL discarded) and a known volume of the sample was diluted. The pH 7.4 samples were diluted with PBS and the acidic samples with mobile phase A (section 2.5). A standard dissolved in PBS was made for the pH 7.4 samples and a standard dissolved in mobile phase A for the acidic samples. The PBS standards used for the standard curves were treated like the samples to avoid false results caused by adsorption. The standard curves were made to cover the concentration interval of the samples after dilution.
From the observed relatively stable concentration of dissolved prodrugs measured in the suspensions after 8-9 day up to 23 days, the solubilities of the prodrugs (Sprodrug) were determined. In this time interval, the rate of appearance of parent drug was determined and an apparent pseudo-zero-order rate constant (k0) was obtained. By assuming that the dissolution rates were much faster than the conversion of the prodrugs to the parent drug, pseudo first-order rate constants (khyd) for cleavage of the prodrugs were calculated according to: […]

[3] = Stability in 80% (v/v) human plasma at 37° C.; assay type: in vitro ADME; details: 80% plasma
Experimental: (§1) The stability of the prodrugs was determined in PBS, 80% human SF, 80% human plasma and 80% rat serum at 37° C. 10, 20 or 50 μL of prodrug solution in MeOH was added to 1.0 mL 80% rat serum, 2.5 mL 80% SF or human plasma or 10.0 mL PBS, respectively to give a final prodrug concentration corresponding to the solubility at pH 7.4 at 37° C. Samples were withdrawn at appropriate intervals depending on the rate of degradation. The samples from the biological medias were added to MeCN (1:2 (v:v)) vortexed and centrifuged (5 min, 10000 RPM) and the supernatant analyzed by HPLC. The 700 μL PBS samples were added to 100 μL PBS and mixed before analysis by HPLC. First a pilot study was performed with n=1 to find the appropriate sampling times and thereafter an experiment with n=3. The stability was determined from the decrease in the area of prodrug.

[4] = Stability in 80% (v/v) human SF at 37° C.; assay type: in vitro ADME; details: 80% (v/v) human SF (synovial fluid), 80% SF batch 210513, 37° C.
Experimental: as §1

[5] = Stability in 80% (v/v) rat serum at 37° C.; assay type: in vitro ADME; details: pH 7.4, 80% rat serum
Experimental: as §1

[6] = Stability in PBS pH 7.4 at 37° C.; assay type: physicochemical; details: pH 7.4, PBS pH 7.4, 37° C.
Experimental: as §1

[7] = system: osteoarthritis pain induced by a single injection of MIA; experiment: Monosodium iodoacetate (MIA) model of osteoarthritis, joint compression thresholds; assay type: in vivo, Sprague-Dawley rats; details: for mean joint compression thresholds compared to the vehicle group: 0.3 mg intra-articular; for reversal of osteoarthritis pain compared to vehicle treated animals: single intra-articular administration of 0.3 mg
From the text: Osteoarthritis is the most common form of joint disease. Nearly one third of adults in the United States suffer from osteoarthritis and it is the most common cause of disability in adults in the United States. The monosodium iodoacetate (MIA) model of osteoarthritis described here produces changes in the structure and integrity of the affected cartilage that is very similar to what is seen in human osteoarthritis. Sodium iodoacetate is a metabolic inhibitor that, when injected into the joint space, selectively kills chondrocytes, the cells that form cartilage. Over a period of 2-3 weeks, the loss of cartilage produces a state highly analogous to human osteoarthritis characterized by joint instability, loss of cartilage, and decreased bone quality around the affected joint. These physiological changes are also accompanied by pain in the affected joint.
In this study, osteoarthritis was induced by a single injection of MIA (2 mg) into the synovium of the left knee, which results in increased sensitivity to pressure. For this particular study, the test compounds were given 14 days post-MIA injection to determine if the test compound can reduce the sensitivity.
• Vehicle (0.01% Tween 80 in phosphate buffer) administered intra-articularly at a dose volume of 30 μl on day 0. • Test articles DPX-1-0008, DPX-1-0011, DPX-1-0018, DPX-1-0020, DPX-1-0023, and DPX-1-0024, administered intra-articularly at a dose of 0.3 mg on day 0. • Diclofenac, administered orally at a dose of 10 mg/kg on day 8 to the vehicle group. Methods
A total of 82 male, Sprague-Dawley rats underwent MIA injection with the goal of having 70 animals available for the pharmacology treatment due to 15% failure of developing a pain state. Fourteen days after MIA injection, animals met the inclusion criteria were assigned to one of seven groups (vehicle, test article DPX-1-0008, DPX-1-0011, DPX-1-0018, DPX-1-0020, DPX-1-0023, and DPX-1-0024) and received the assigned treatment. Joint compression thresholds were assessed prior to MIA injection, prior to dosing with control/test articles, and 1, 2, 4, and 7 days post-dosing. Diclofenac served as the positive control for the study. On day 8, animals in the vehicle group received diclofenac (10 mg/kg, PO) and joint compression were assessed prior to, 1 and 2 hours after dosing for all the animals. All animals were euthanized on day 8 following the behavioral assessment.

[8] = hydrochloride solution pH 4.35, 37° C., n = 6

| SMILES | pKa [1] | S (mM) ([2]; 67 mM phosphate buffer pH 7.4, 37° C., n = 6) | solubility thermodynamic ([2]; 67 mM phosphate buffer, pH 7.4, aqueous buffer, 67 mM phosphate buffer pH 7.4, 37° C., n = 6) | S (mM) [2, 8] | S (μg/ml) [2, 8] | solubility thermodynamic ([2]; hydrochloride solution, pH 4.35, aqueous buffer, hydrochloride solution pH 4.35, 37° C., n = 6) | decrease of solubility from pH 4.35 to pH 7.4 ([2]; pH 4.35 vs pH 7.4) | half-life at 2.7 μg/ml [3] | half-life at 2.7 μg/ml [4] | half-life at 2.7 μg/ml [5] | half-life at 2.7 μg/ml ([6]; read-out: T1/2 (days)) | half-life at 2.7 μg/ml ([6]; read-out: T1/2 (min)) | mean joint compression thresholds compared to the vehicle group ([7]; 1 day post-dosing) | reversal of osteoarthritis pain compared to vehicle treated animals [7] | mean joint compression thresholds compared to the vehicle group ([7]; 8 days post-dosing) | mean joint compression thresholds compared to baseline values on day 8 ([7]; 10 mg/kg oral, 1 and 2 hours post-dosing) |
| --- | --- | --- | --- | --- | --- | --- | --- | --- | --- | --- | --- | --- | --- | --- | --- | --- |
| Cc1ncn(CCOC(=O)Cc2ccccc2Nc2c(Cl)cccc2Cl)c1C [DPX-1-0023] | 7.92 | 0.0064 ± 0.0005 mM | ~2.7 µg/mL (≈ 0.00645 mM) | 7.2 ± 0.1 mM | 3019 µg/mL | 3020 ± 62 µg/mL (≈ 7.22 mM) | 1118 fold | 5.1 ± 0.5 min | 39.8 ± 2.8 min | 6.1 ± 0.4 min | 0.75 days | 0.752 ± 0.114 days | significantly increased | significantly reversed | – | – |
| O=C(Cc1ccccc1Nc1c(Cl)cccc1Cl)OCCCn1ccnc1 [DPX-1-0018] | – | – | – | – | – | – | – | – | – | – | – | – | – | significantly reversed | significantly increased | – |
| O=C(O)Cc1ccccc1Nc1c(Cl)cccc1Cl [diclofenac] | – | – | – | – | – | – | – | – | – | – | – | – | – | – | – | significantly increased |
